Consider twelve compounds from ChEMBL document CHEMBL3997788, “Virtual screening and experimental validation identify novel modulators of nuclear receptor RXRα from Drugbank database” (Bioorg Med Chem Lett, 2017).

Structures are written as SMILES. Calls of active or inactive are those of the source. The calls are words filed in the database; no cut-off is given here.

The target in test [1] is T1, Retinoic acid receptor RXR-alpha (Homo sapiens) (UniProt P19793).
T1 sequence (whole entry): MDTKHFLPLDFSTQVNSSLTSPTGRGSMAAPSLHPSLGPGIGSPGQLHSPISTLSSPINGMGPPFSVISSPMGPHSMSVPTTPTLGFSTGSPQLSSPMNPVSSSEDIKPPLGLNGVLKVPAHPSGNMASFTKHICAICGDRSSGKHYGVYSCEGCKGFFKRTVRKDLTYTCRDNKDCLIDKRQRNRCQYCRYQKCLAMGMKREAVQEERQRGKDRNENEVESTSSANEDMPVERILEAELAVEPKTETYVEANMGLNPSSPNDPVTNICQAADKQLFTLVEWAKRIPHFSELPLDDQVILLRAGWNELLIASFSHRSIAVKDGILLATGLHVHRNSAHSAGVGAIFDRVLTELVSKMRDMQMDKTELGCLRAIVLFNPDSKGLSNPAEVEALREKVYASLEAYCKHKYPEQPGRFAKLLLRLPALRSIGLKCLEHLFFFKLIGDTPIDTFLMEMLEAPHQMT
Kind of test: Antagonist activity at Myc-tagged RXRalpha (unknown origin) expressed in human MCF-7 cells assessed as inhibition of 9-cis-RA induced receptor transactivation at 10 uM after 24 hrs by luciferase reporter gene assay. The format is cell-based. (In general: A reporter such as luciferase makes a cellular process visible.)

In test [2] the target is T1, Retinoic acid receptor RXR-alpha (Homo sapiens). The test is described as follows: Antagonist activity at Myc-tagged RXRalpha (unknown origin) expressed in human MCF-7 cells assessed as inhibition of 9-cis-RA induced receptor transactivation after 24 hrs by luciferase reporter gene assay. The format is cell-based.
Test [3] deals with T2, Retinoic acid receptor RXR-alpha (Homo sapiens, UniProt P19793).
T2 sequence (P19793 whole entry): T1 sequence (whole entry)
Kind of test: Binding affinity to RXRalpha-LBD (unknown origin) measured up to 120 sec by surface plasma resonance method.

The target in test [4] is T1, Retinoic acid receptor RXR-alpha (Homo sapiens). The test is described as follows: Antagonist activity at Myc-tagged RXRalpha (unknown origin) expressed in human MCF-7 cells assessed as inhibition of 9-cis-RA induced receptor transactivation at 1 uM after 24 hrs by luciferase reporter gene assay. The format is cell-based.
The target is the same in test [5]. The test is described as follows: Antagonist activity at Myc-tagged RXRalpha (unknown origin) expressed in human MCF-7 cells assessed as inhibition of 9-cis-RA induced receptor transactivation at 100 nM after 24 hrs by luciferase reporter gene assay. The format is cell-based.
The target is the same in test [6]. The test is described as follows: Agonist activity at Myc-tagged RXRalpha (unknown origin) expressed in human MCF-7 cells assessed as receptor transactivation at 10 uM after 24 hrs by luciferase reporter gene assay. The format is cell-based.
The target is the same in test [7]. The test is described as follows: Agonist activity at Myc-tagged RXRalpha (unknown origin) expressed in human MCF-7 cells assessed as increase in 9-cis-RA induced receptor transactivation at 5 to 10 uM after 24 hrs by luciferase reporter gene assay. The format is cell-based.
The target is the same in test [8]. The test is described as follows: Agonist activity at Myc-tagged RXRalpha (unknown origin) expressed in human MCF-7 cells assessed as increase in 9-cis-RA induced receptor transactivation at 1 uM after 24 hrs by luciferase reporter gene assay. The format is cell-based.

Consider `CC(C)c1nc(N(C)S(C)(=O)=O)nc(-c2ccc(F)cc2)c1/C=C/[C@@H](O)C[C@@H](O)CC(=O)O`, for which, in test [1], the inhibition entry is “Active”.

Turning to `CC(C)n1c(/C=C/C(O)CC(O)CC(=O)O)c(-c2ccc(F)cc2)c2ccccc21` (stereo not drawn) [FLUVASTATIN], the inhibition entry in test [2] is “Dose-dependent effect”. For the same compound, the Kd – broadly, a measure of binding affinity in units of concentration – in test [3] is 11 µM. Moreover, in test [1], the inhibition entry is “Active”.

Take `O=C1[C@H](CC[C@H](O)c2ccc(F)cc2)[C@@H](c2ccc(O)cc2)N1c1ccc(F)cc1`: the inhibition entry in test [1] was “Active”.

For `O=C1CCc2cc(OCCCCc3nnnn3C3CCCCC3)ccc2N1`, the inhibition result in test [1] was “Active”.

As for `O=C(O)C[C@H](O)C[C@H](O)/C=C/c1c(C2CC2)nc2ccccc2c1-c1ccc(F)cc1` [PITAVASTATIN CALCIUM], the inhibition result in test [4] and in test [1] was “Active” each time. Moreover, binding in test [3] was characterised by a dissociation constant (Kd) of 13.3 µM.

Consider `CC1=C(C)C(=O)C(C(CCCCCC(=O)O)c2ccccc2)=C(C)C1=O` (stereo not drawn), for which, in test [1], the inhibition result was “Active”.

In the case of `CC[C@H](C)C(=O)O[C@H]1C[C@@H](O)C=C2C=C[C@H](C)[C@H](CC[C@@H](O)C[C@@H](O)CC(=O)O)[C@H]21`, the inhibition result in test [1] was “inactive”.

In test [3], `O=C1C=CCC(/C=C/c2c(C3CC3)nc3ccccc3c2-c2ccc(F)cc2)O1` (stereo not drawn) had a Kd of 138 µM. In test [1], the inhibition result is “inactive”.

`O=C(O)/C=C/C=C/C=C/c1c(C2CC2)nc2ccccc2c1-c1ccc(F)cc1`: in test [5], the inhibition result was “Active”. This compound also yielded an equilibrium dissociation constant (Kd) in test [3] of 5.12 µM.

As for `CN(CCOc1ccc(CC2SC(=O)NC2=O)cc1)c1ccccn1` (stereo not drawn), the outcome in test [6] and in test [8] was inactive. Moreover, the outcome in test [7] was Active.

Consider `Clc1ccc(CCC(Cn2ccnc2)Sc2c(Cl)cccc2Cl)cc1` (stereo not drawn), for which, in test [1], the inhibition result was “Active”.

As to `O=c1[nH]c2ccccc2n1CCCN1CCC(n2c(=O)[nH]c3cc(Cl)ccc32)CC1` [DOMPERIDONE], the outcome in test [6] and in test [8] was inactive. In addition, in test [7], the outcome was Active. For the same compound, in test [3], the Kd is 8.8 µM.
